The source of these data is patent US11001587B2, “Substituted indazoles as phosphatidylinositol kinase inhibitors” (CUROVIR AB, priority 2017, dated 2021).

Series [1] relates to Enterovirus 6. The series is described as follows: In vitro CPE assay in mammalian cell culture, EV6. The format is cell-based. Particulars: viral cytopathic effect in mammalian cell culture, read-out: EV6 inhibition capacity (IC50). (In general: Protection from cytopathic effect is a common read-out in antiviral testing.)
The subject of series [2] is Enterovirus 30. The series is described as follows: In vitro CPE assay in mammalian cell culture, EV30. The format is cell-based. As to conditions: viral cytopathic effect in mammalian cell culture, read-out: EV30 inhibition capacity (IC50).
Series [3] concerns Enterovirus 68. The series can be described thus: In vitro CPE assay in mammalian cell culture, EV68. Type of series: cell-based. As to conditions: Enterovirus D, viral cytopathic effect in mammalian cell culture, read-out: EV68 inhibition capacity (IC50).
In series [4] the test system is Enterovirus 71. The series is described as follows: In vitro CPE assay in mammalian cell culture, EV71. Type of series: cell-based. Particulars: Enterovirus A, viral cytopathic effect in mammalian cell culture, read-out: EV71 inhibition capacity (IC50).
Series [5] relates to coxsackie B1 virus. The series is described as follows: In vitro CPE assay in mammalian cell culture, B1. Particulars: viral cytopathic effect in mammalian cell culture, read-out: B1 inhibition capacity (IC50). The format is cell-based.
In series [6] the test system is coxsackie B2 virus. The series can be described thus: In vitro CPE assay in mammalian cell culture, B2. Type of series: cell-based. As to conditions: viral cytopathic effect in mammalian cell culture, read-out: B2 inhibition capacity (IC50).
Series [7] deals with coxsackie B3 virus. The series is described as follows: In vitro CPE assay in mammalian cell culture, B3. Particulars: Enterovirus B, viral cytopathic effect in mammalian cell culture, read-out: B3 inhibition capacity (IC50). The format is cell-based.
Series [8] deals with coxsackie B4 virus. The series can be described thus: In vitro CPE assay in mammalian cell culture, B4. As to conditions: Enterovirus B, viral cytopathic effect in mammalian cell culture, read-out: B4 inhibition capacity (IC50). Type of series: cell-based.
The subject of series [9] is coxsackie B5 virus. The series is described as follows: In vitro CPE assay in mammalian cell culture, B5. The format is cell-based. Particulars: viral cytopathic effect in mammalian cell culture, read-out: B5 inhibition capacity (IC50).
The test system of series [10] is polio virus Sabin 1. The series can be described thus: organism not typed. Type of series: cell-based. As to conditions: read-out: Polio 1 inhibition capacity (IC50).
The nature of series [11]: in vivo. Also on record: species or system Sprague Dawley rats. As to conditions: male, Sprague Dawley, rat, po, 50 mg/kg. As for the experimental part:
Overnight fasted animals were administered with the test compounds in recommended vehicle 0.4% (v/v) Tween 80+2% (v/v) Glycerol and 15% w/v HPBCD by oral route with a dose of 50 mg/kg body weight at dose volume of 10 mL/kg bw. Under mild isoflurane anesthesia, blood samples were collected into pre-labeled tubes containing anticoagulant (K2EDTA—2 mg/mL blood) during the next 24 hours post dose. Collected blood samples were centrifuged at 4000 rpm, 4° C. for 10 minutes and plasma was separated and stored at −80° C. until analysis.

Turning to `COc1ccc(CNc2cc(C)nc3c(-c4ccc5c(c4)c(C)nn5C)c(C)nn23)cc1` [Example 10, 3-(1,3-dimethyl-1H-indazol-5-yl)-N-(4-methoxybenzyl)-2,5-dimethylpyrazolo[1,5-a]pyrimidin-7-amine], the concentration for half-maximal inhibition (IC50) (in general, the midpoint of a concentration-inhibition curve) in series [1] is below 1000 nM; in series [2], below 100 nM; in series [3], below 1000 nM; in [4], below 1000 nM; in series [5], below 1000 nM; in [6], below 1000 nM. For the same compound, the IC50 in series [7] is below 100 nM; in series [8] it was below 100 nM; in series [9], below 100 nM; in series [10], below 1000 nM.

In the case of `Cc1nc(NCc2ccc(S(C)(=O)=O)cc2)n2nc(C)c(-c3ccc4c(c3)c(C)nn4C)c2n1` [Example 25, 8-(1,3-dimethyl-1H-indazol-5-yl)-2,7-dimethyl-N-(4-(methyl-sulfonyl)benzyl)pyrazolo[1,5-a][1,3,5]triazin-4-amine], the half-maximal inhibitory concentration (IC50) in series [1], in [2], in series [3], in [4], in series [5] and in [6] was below 10 nM throughout. Also, the half-inhibitory concentration (IC50) in [7] is below 10 nM; in [8], below 1 nM; in [9], below 10 nM; in series [10], below 1 nM.

On to `Cc1nc(NCc2ccc(Cl)cc2)n2nc(C)c(-c3ccc4c(c3)c(C)nn4C)c2n1` [Example 24, N-(4-chlorobenzyl)-8-(1,3-dimethyl-1H-indazol-5-yl)-2,7-dimethylpyrazolo[1,5-a][1,3,5]triazin-4-amine], for which the IC50 is below 1000 nM in series [1]; below 100 nM in [2]; below 1000 nM in series [3]; below 100 nM in series [4]; below 100 nM in [5]; below 100 nM in series [6]. In addition, the concentration for half-maximal inhibition (IC50) is below 100 nM in [7], below 100 nM in series [8], below 1000 nM in [9] and below 100 nM in series [10].

For `Cc1nc(NCc2ccc(S(N)(=O)=O)cc2)n2nc(C)c(-c3ccc4c(c3)c(C)nn4C)c2n1` [Example 23, 4-(((8-(1,3-dimethyl-1H-indazol-5-yl)-2,7-dimethylpyrazolo[1,5-a][1,3,5]triazin-4-yl)amino)methyl)benzene-sulfonamide], the IC50 in [1] was below 100 nM; in [2], below 100 nM; in [3] it was below 100 nM; in [4], below 10 nM; in series [5], below 100 nM; in series [6] it was below 100 nM. In addition, the half-inhibitory concentration (IC50) was below 100 nM in series [7], below 10 nM in series [8], below 100 nM in [9] and below 100 nM in [10].

`Cc1cc(NCc2ccc(Cl)cc2)n2nc(C)c(-c3ccc4c(c3)c(C)nn4C)c2n1` [Example 11, N-(4-chlorobenzyl)-3-(1,3-dimethyl-1H-indazol-5-yl)-2,5-dimethylpyrazolo[1,5-a]pyrimidin-7-amine]: the concentration for half-maximal inhibition (IC50) in series [1], in series [2], in [3], in series [4], in series [5] and in [6] was below 1000 nM throughout. Besides, the 50% inhibitory concentration (IC50) in series [7] is below 1000 nM; in [8] it was below 100 nM; in [9], below 1000 nM; in series [10] it was below 1000 nM.

`Cc1ccc(CNc2nc(C)nc3c(-c4ccc5c(c4)c(C)nn5C)c(C)nn23)cn1` [Example 22, 8-(1,3-dimethyl-1H-indazol-5-yl)-2,7-dimethyl-N-((6-methylpyridin-3-yl)methyl)pyrazolo[1,5-a][1,3,5]triazin-4-amine]: the IC50 in series [1] is below 1000 nM; in [2], below 100 nM; in series [3], below 100 nM; in series [4], below 10 nM; in [5], below 10 nM; in series [6], below 10 nM. Further, the half-maximal inhibitory concentration (IC50) was below 1 nM in [7], below 1000 nM in series [8], below 100 nM in [9] and below 1 nM in series [10].

On to `COc1ccc(CNc2cc(C)nc3c(-c4ccc5c(c4)c(C)nn5C)c(C)nn23)cn1` [Example 14, 3-(1,3-dimethyl-1H-indazol-5-yl)-N-((6-methoxypyridin-3-yl)methyl)-2,5-dimethylpyrazolo[1,5-a]pyrimidin-7-amine], for which the IC50 in [1] is below 1000 nM; in [2], below 100 nM; in series [3] it was below 1000 nM; in series [4], below 1000 nM; in [5], below 1000 nM; in [6], below 1000 nM. The half-inhibitory concentration (IC50) was below 10 nM in [7], below 10 nM in series [8], below 1000 nM in [9] and below 100 nM in series [10].

Regarding `Cc1cc(NCc2cccs2)n2nc(C)c(-c3ccc4c(c3)c(C)nn4C)c2n1` [Example 15, 3-(1,3-dimethyl-1H-indazol-5-yl)-2,5-dimethyl-N-(thiophen-2-ylmethyl)pyrazolo[1,5-a]pyrimidin-7-amine], the IC50 in [1], in series [2], in [3], in series [4], in [5] and in series [6] was below 100 nM in each case. Besides, the IC50 in series [7], in series [8], in [9] and in [10] was below 100 nM throughout.

Turning to `Cc1cc(NCc2ccc(NS(C)(=O)=O)cc2)n2nc(C)c(-c3ccc4c(c3)c(C)nn4C)c2n1` [Example 16, N-(4-(((3-(1,3-dimethyl-1H-indazol-5-yl)-2,5-dimethylpyrazolo[1,5-a]pyrimidin-7-yl)amino)meth-yl)phenyl)methane-sulfonamide], the concentration for half-maximal inhibition (IC50) in series [1], in series [2], in [3], in [4], in series [5] and in series [6] was below 1000 nM each time. Also, the half-maximal inhibitory concentration (IC50) was below 100 nM in series [7], below 100 nM in [8], below 1000 nM in [9] and below 1000 nM in series [10].

Turning to `Cc1cc(NCc2ccc(S(N)(=O)=O)cc2)n2nc(C)c(-c3ccc4c(c3)c(C)nn4C)c2n1` [Example 13, 4-(((3-(1,3-dimethyl-1H-indazol-5-yl)-2,5-dimethylpyrazolo[1,5-a]pyrimidin-7-yl)amino)methyl)benzene-sulfonamide], the 50% inhibitory concentration (IC50) in [1] was below 1000 nM; in series [2], below 100 nM; in [3], below 1000 nM; in [4] it was below 100 nM; in series [5], below 1000 nM; in series [6], below 1000 nM. The half-inhibitory concentration (IC50) in [7], in series [8], in [9] and in [10] was below 100 nM in each case. Besides, the AUC(0-inf) (as a rule, total exposure, with the tail of the curve extrapolated) in series [11] was 76100 ± 26800 ng·h/mL. Also, the area under the curve AUC(0-t) (commonly the area under the concentration-time curve up to a stated or last time point) in [11] is 62100 ± 10900 ng·h/mL. The same compound yielded an AUCextrap in series [11] of 14.5 ± 17.1%. Further, in series [11], the Cmax (commonly the maximum level reached in the sampled fluid or tissue) worked out at 5900 ± 900 ng/mL. In addition, in series [11], the MRT last – broadly, the average time that molecules of a dose stay in the body – was 7.5 ± 1.4 h. Also, the Tmax (as a rule, the time at which the peak concentration occurs) in series [11] amounted to 2 h. Also, the half-life (in general, how long it takes for the measured level to halve) in [11] was 8.2 ± 5.4 h.
